Results as given in ChEMBL document CHEMBL3351318, “Synthesis of novel 4-nitropyrrole-based semicarbazide and thiosemicarbazide hybrids with antimicrobial and anti-tubercular activity” (Bioorg Med Chem Lett, 2014).
≈ marks a conversion by molar mass, not a printed value.

How the values were obtained:
Staphylococcus aureus [1] = experiment: Antimicrobial activity against methicillin-resistant Staphylococcus aureus ATCC 43866 after 48 hrs by broth dilution technique; type: functional; details: ATCC 43866, 48 h
Klebsiella pneumoniae = experiment: Antimicrobial activity against Klebsiella pneumoniae after 48 hrs by broth dilution technique; type: functional
[2] = tested on: Mycobacterium tuberculosis; experiment: Antitubercular activity against Mycobacterium tuberculosis H37Rv after 7 days by Resazurin micro titer assay; type: functional; details: 168 h
Staphylococcus aureus [3] = experiment: Ratio of ciprofloxacin MIC to compound MIC for methicillin-resistant Staphylococcus aureus ATCC 43866 after 48 hrs by broth dilution technique; type: functional
Escherichia coli [4] = experiment: Antimicrobial activity against Escherichia coli ATCC 25922 after 48 hrs by broth dilution technique; type: functional; details: ATCC 25922, 48 h
Candida albicans [5] = experiment: Antimicrobial activity against Candida albicans after 48 hrs by agar dilution method; type: functional
Vero = experiment: Cytotoxicity against African green monkey Vero cells assessed as reduction in cell viability after 72 hrs by MTT assay; type: cell-based; details: Chlorocebus sabaeus
Candida albicans [6] = experiment: Ratio of Amphotericin B MIC to compound MIC for Candida albicans after 48 hrs by broth dilution technique; type: functional
Staphylococcus aureus [7] = experiment: Antimicrobial activity against methicillin-sensitive Staphylococcus aureus ATCC 35556 after 48 hrs by broth dilution technique; type: functional; details: ATCC 35556, 48 h
Staphylococcus aureus [8] = experiment: Ratio of ciprofloxacin MIC to compound MIC for methicillin-sensitive Staphylococcus aureus ATCC 35556 after 48 hrs by broth dilution technique; type: functional
Escherichia coli [9] = experiment: Ratio of ciprofloxacin MIC to compound MIC for Escherichia coli ATCC 25922 after 48 hrs by broth dilution technique; type: functional

Structure (SMILES)	MIC (Staphylococcus aureus [1])	MIC (Klebsiella pneumoniae)	MIC [2]	Ratio (Staphylococcus aureus [3])	MIC (Escherichia coli [4])	MIC (Candida albicans [5])	IC50 (Vero)	Ratio (Candida albicans [6])	MIC (Staphylococcus aureus [7])	Ratio (Staphylococcus aureus [8])	Ratio (Escherichia coli [9])
Cn1cc([N+](=O)[O-])cc1C(=O)NNC(=S)NCc1ccccc1	1.56 µg/mL (≈ 4.68 µM)	3.12 µg/mL (≈ 9.37 µM)	31.9 µg/mL (≈ 95.7 µM)	4	1.56 µg/mL (≈ 4.68 µM)	1.56 µg/mL (≈ 4.68 µM)	239 µM	2	0.78 µg/mL (≈ 2.34 µM)		
O=C(NNC(=S)Nc1ccc(F)cc1)c1cc([N+](=O)[O-])c[nH]1	3.12 µg/mL (≈ 9.67 µM)	3.12 µg/mL (≈ 9.67 µM)	0.56 µg/mL (≈ 1.73 µM)		1.56 µg/mL (≈ 4.83 µM)	3.12 µg/mL (≈ 9.67 µM)	331 µM	4	1.56 µg/mL (≈ 4.83 µM)		
O=C(NNC(=S)Nc1ccccc1F)c1cc([N+](=O)[O-])c[nH]1	3.12 µg/mL (≈ 9.67 µM)	3.12 µg/mL (≈ 9.67 µM)	0.82 µg/mL (≈ 2.54 µM)		1.56 µg/mL (≈ 4.83 µM)	3.12 µg/mL (≈ 9.67 µM)	471 µM	4	1.56 µg/mL (≈ 4.83 µM)		
O=C(NNC(=S)Nc1ccc(Cl)cc1)c1cc([N+](=O)[O-])c[nH]1	3.12 µg/mL (≈ 9.2 µM)	3.12 µg/mL (≈ 9.2 µM)	1.3 µg/mL (≈ 3.83 µM)		1.56 µg/mL (≈ 4.59 µM)	3.12 µg/mL (≈ 9.2 µM)	191 µM	4	1.56 µg/mL (≈ 4.59 µM)		
O=C(NNC(=S)NCCc1ccccc1)c1cc([N+](=O)[O-])c[nH]1	3.12 µg/mL (≈ 9.37 µM)	6.25 µg/mL (≈ 18.7 µM)	3.9 µg/mL (≈ 11.7 µM)		3.12 µg/mL (≈ 9.37 µM)	3.12 µg/mL (≈ 9.37 µM)	281 µM	4	1.56 µg/mL (≈ 4.68 µM)		
O=C(NNC(=S)NCc1ccccc1)c1cc([N+](=O)[O-])c[nH]1	6.25 µg/mL (≈ 19.6 µM)	6.25 µg/mL (≈ 19.6 µM)	7.3 µg/mL (≈ 22.9 µM)		3.12 µg/mL (≈ 9.79 µM)	3.12 µg/mL (≈ 9.79 µM)	397 µM	4	3.12 µg/mL (≈ 9.79 µM)		
Cn1cc([N+](=O)[O-])cc1C(=O)NNC(=S)Nc1ccc([N+](=O)[O-])cc1	0.39 µg/mL (≈ 1.07 µM)	1.56 µg/mL (≈ 4.28 µM)	53.8 µg/mL (≈ 148 µM)	8	0.39 µg/mL (≈ 1.07 µM)	0.78 µg/mL (≈ 2.14 µM)	395 µM	4	0.195 µg/mL (≈ 0.535 µM)	8	4
COc1ccc(NC(=S)NNC(=O)c2cc([N+](=O)[O-])cn2C)cc1	0.39 µg/mL (≈ 1.12 µM)	1.56 µg/mL (≈ 4.47 µM)	19.4 µg/mL (≈ 55.5 µM)	8	0.39 µg/mL (≈ 1.12 µM)	0.78 µg/mL (≈ 2.23 µM)	184 µM	4	0.195 µg/mL (≈ 0.558 µM)	8	4
Cn1cc([N+](=O)[O-])cc1C(=O)NNC(=S)Nc1ccc(F)cc1	0.39 µg/mL (≈ 1.16 µM)	1.56 µg/mL (≈ 4.62 µM)	6.7 µg/mL (≈ 19.9 µM)	8	0.39 µg/mL (≈ 1.16 µM)	0.78 µg/mL (≈ 2.31 µM)	662 µM	4	0.195 µg/mL (≈ 0.578 µM)	8	4
Cn1cc([N+](=O)[O-])cc1C(=O)NNC(=S)Nc1ccccc1F	0.78 µg/mL (≈ 2.31 µM)	1.56 µg/mL (≈ 4.62 µM)	3.2 µg/mL (≈ 9.49 µM)	4	0.39 µg/mL (≈ 1.16 µM)	0.78 µg/mL (≈ 2.31 µM)	293 µM	4	0.39 µg/mL (≈ 1.16 µM)	4	4
Cn1cc([N+](=O)[O-])cc1C(=O)NNC(=S)Nc1ccc(Cl)cc1	0.39 µg/mL (≈ 1.1 µM)	1.56 µg/mL (≈ 4.41 µM)	16.3 µg/mL (≈ 46.1 µM)	8	0.39 µg/mL (≈ 1.1 µM)	0.78 µg/mL (≈ 2.2 µM)	210 µM	4	0.195 µg/mL (≈ 0.551 µM)	8	4
Cn1cc([N+](=O)[O-])cc1C(=O)NNC(=S)NC1CCCCC1	0.78 µg/mL (≈ 2.4 µM)	1.56 µg/mL (≈ 4.79 µM)	27.5 µg/mL (≈ 84.5 µM)	4	0.39 µg/mL (≈ 1.2 µM)	0.78 µg/mL (≈ 2.4 µM)	352 µM	4	0.39 µg/mL (≈ 1.2 µM)	4	4
Cc1ccccc1NC(=S)NNC(=O)c1cc([N+](=O)[O-])cn1C	0.78 µg/mL (≈ 2.34 µM)	1.56 µg/mL (≈ 4.68 µM)	11.9 µg/mL (≈ 35.7 µM)		0.39 µg/mL (≈ 1.17 µM)	0.78 µg/mL (≈ 2.34 µM)	471 µM	4	0.39 µg/mL (≈ 1.17 µM)	4	4
COc1cc(NC(=S)NNC(=O)c2cc([N+](=O)[O-])cn2C)cc(OC)c1OC	1.56 µg/mL (≈ 3.81 µM)	1.56 µg/mL (≈ 3.81 µM)	21.5 µg/mL (≈ 52.5 µM)		0.39 µg/mL (≈ 0.953 µM)	0.78 µg/mL (≈ 1.91 µM)	392 µM	4	0.78 µg/mL (≈ 1.91 µM)		4
